Data from paper PMC7767178 (International Journal of Molecular Sciences, 2020).
Structures can show the parent of a compound that is named as a salt. Where two headings read alike, the source gives them in different places.

How the values were obtained:
A. veronii ACCC61732 [1] = assay: microbe, parasite or virus in culture; type: cell-based; details: for MIC: Aeromonas veronii; for MICa, MIC of the antibiotic used alone: checkerboard
Text: The checkerboard microtiter assay was used to determine the combinations of peptides with different antibiotics (including quinolone, rifamycin, peptide antibiotics, aminoglycoside, tetracycline, and chloramphenicol). […] The fractional inhibitory concentration (FIC) was used to calculate the combination effects using the following formula: FIC index (FICI) = MIC(peptide in combination)/MIC(peptide alone) + MIC(antibiotic in combination)/MIC(antibiotic alone). FICI ≤ 0.5 means synergistic, 0.5 < FICI ≤ 1 means additive action, 1 < FICI ≤ 4 means indifference, and FICI > 4 means antagonism.

A. veronii ACCC61732 [2] = assay: Resistance development, 30 serial passages; type: cell-based; details: A. veronii ACCC61732, 30 passages (30 days)
Method: The development of bacterial resistance of peptides was performed by the MIC assays. […] GEN, CIP, and PMB were used as controls. […] The MIC values were measured as described above. The serial passaging was repeated for 30 days.

Gram-negative bacteria = details: data not shown; ref our previous study; cited from earlier work
Text: A. veronii is a widely distributed novel pathogen that can infect humans and animals. Due to overuse of broad-spectrum antibiotics in fish hatcheries, agriculture, and clinical settings, there has been an increase in antibiotic resistance of Aeromonas species, illustrating an emerging potential health concern.

A. veronii ACCC61732 [3] = assay: Outer membrane permeabilization, NPN assay; type: cell-based; details: NPN fluorescence, 1×–4× MIC
Method: The outer membrane permeabilization abilities of peptides were determined using the fluorescent NPN assay. Mid-log phase A. veronii ACCC61732 was collected by centrifugation, washed twice, and then suspended in N-2-hydroxyethylpiperazine-n-2-ethane sulfonic acid (HEPES) buffer (pH 7.4) to an OD600nm = 0.4. […] Fluorescence intensity was recorded until no further increase with a microplate reader (excitation/emission, 328/438 nm).

[4] = ACCC61732, checkerboard, Tables S1–S5, identical values of one substance within a block given once, read-out: MICa, MIC of the antibiotic used alone
[5] = Tables S1–S5, identical values of one substance within a block given once

With O=C(N[C@H](CO)[C@H](O)c1ccc([N+](=O)[O-])cc1)C(Cl)Cl [CHLO, chloramphenicol] the MIC (A. veronii ACCC61732 [1]; [4]) was 0.25 µg/mL.
CCN1CCN(c2cc3c(cc2F)c(=O)c(C(=O)O)cn3C2CC2)CC1 [ENRO, enrofloxacin] gave an MIC (A. veronii ACCC61732 [1]; [4]) of 0.25 µg/mL.
For CNC(C)C1CCC(N)C(OC2C(N)CC(N)C(OC3OCC(C)(O)C(NC)C3O)C2O)O1 (stereo not shown) [GEN, gentamicin, reference compound], the “increase of MIC after 30 serial passages” value (A. veronii ACCC61732 [2]) was 31 fold.
NC[C@H]1O[C@H](O[C@H]2[C@H](O)[C@@H](O[C@H]3O[C@H](CO)[C@@H](O)[C@H](N)[C@H]3O)[C@H](N)C[C@@H]2N)[C@H](O)[C@@H](O)[C@@H]1O [KANA, kanamycin sulfate] showed an MIC (A. veronii ACCC61732 [1]; [4]) of 8 µg/mL.
Work on CCn1cc(C(=O)O)c(=O)c2cc(F)c(N3CCNCC3)cc21 [NOR, norfloxacin] yielded an MIC (A. veronii ACCC61732 [1]; [4]) of 0.5 µg/mL.
With CC1COc2c(N3CCN(C)CC3)c(F)cc3c(=O)c(C(=O)O)cn1c23 (stereo not shown) [OFX, ofloxacin] the MIC (A. veronii ACCC61732 [1]; [4]) was 0.25 µg/mL.
Molecule [H]/N=C(/N)N[C@H]1[C@H](O)[C@@H](O)[C@H](O[C@@H]2O[C@@H](C)[C@](O)(C=O)[C@H]2O[C@@H]2O[C@@H](CO)[C@H](O)[C@@H](O)[C@@H]2NC)[C@@H](N/C(N)=N\[H])[C@@H]1O [STRE, streptomycin sulfate] has an MIC (A. veronii ACCC61732 [1]; [4]) of 64 µg/mL.
With CN[C@H](CC(C)C)C(=O)N[C@H]1C(=O)N[C@@H](CC(N)=O)C(=O)N[C@H]2C(=O)N[C@H]3C(=O)N[C@H](C(=O)N[C@H](C(=O)O)c4cc(O)cc(O)c4-c4cc3ccc4O)[C@H](O)c3ccc(c(Cl)c3)Oc3cc2cc(c3O[C@@H]2O[C@H](CO)[C@@H](O)[C@H](O)[C@H]2O[C@H]2C[C@](C)(N)[C@H](O)[C@H](C)O2)Oc2ccc(cc2Cl)[C@H]1O [VAN, vancomycin] the MIC (A. veronii ACCC61732 [1]; ACCC61732, read-out: MICa, MIC of the antibiotic used alone) was 16 µg/mL.
In the case of “AACCGFWNVVYRNGVRVHRRN [SN1, analog of N6 without the β-sheet structural feature]”, the “antimicrobial activity against Gram-negative bacteria” value (“antimicrobial activity” for short) (Gram-negative bacteria) is given as “lost the antimicrobial activity”.
For “GFWNVVYRNGVAACCRVHRRN [SN3, analog of N6 without the β-sheet structural feature]”, the “antimicrobial activity” value (Gram-negative bacteria) is given as “lost the antimicrobial activity”.
In the case of “VCVYRCHRRANGFAWNNGVRV [N2413, analog of N6 without the β-sheet structural feature]”, the “antimicrobial activity” value (Gram-negative bacteria) is listed as “lost the antimicrobial activity”.
In the case of “VCVYRGFAWNCHRRANNGVRV [N2143, analog of N6 without the β-sheet structural feature]”, the “antimicrobial activity” value (Gram-negative bacteria) is given as “lost the antimicrobial activity”.
In the case of doxycycline hyclate, the “MICa, MIC of the antibiotic used alone” value (A. veronii ACCC61732 [1]; [5]) was 1 µg/mL.
In the case of polymyxin B [PMB, reference compound], the “ability to penetrate the outer membrane” value (A. veronii ACCC61732 [3]) was “higher ability to penetrate the outer membrane than N6NH2”, the “MICa, MIC of the antibiotic used alone” value (A. veronii ACCC61732 [1]; [5]) was 8 µg/mL and the “increase of MIC after 30 serial passages” value (A. veronii ACCC61732 [2]) was “one-fold”.
